Laboratory results taken from patent publication US4296112A, “Cephalosporins” (Mitsui Toatsu Chemicals, Inc., priority 1979, dated 1981).

How the values were obtained:
[1] = system: Bacillus cereus (IAM 1792); assay: MIC, agar plate dilution (Referential Example 1, Table 1); format: cell-based; details: IAM1792, HIA medium plate, 37° C., 18 hours, read-out: Minimum growth inhibitory concentration (MIC)
Protocol: (§1) The antibacterial activities of the cephalosporins of this invention were measured using the sodium salts of the compounds obtained in Synthesis Examples 1 and 2. The procedure and the results are shown in Referential Example 1.
(§2) Carbenicillin sodium salt (CB-PC) and cephazoline sodum salt (CEZ) were used as controls.
(§3) The antibacterial activities of the test compounds against various Gram-positive and Gram-negative bacteria were determined in a customary manner by the minimum growth inhibitory concentration method (MIC method).
(§4) The experimental procedure was as follows:
(§5) A commercially available heart infusion agar medium (to be abbreviated HIA medium) was used as an assay medium, and a commercially available trypto-soy bouillon medium (to be abbreviated TSB) was used as a medium for the growth of test bacterial strains.
(§6) The test compound was diluted with the melted HIA medium to 100 μg/ml as a maximum concentration, and then serially diluted double. The dilutions were poured into sterilized Petri dishes respectively and allowed to cool and solidify to prepare plates containing the test compound.
(§7) The test bacterial strain was cultivated at 37° C. for 18 to 24 hours in the TSB medium. The culture broth was diluted to 50 to 500 times with a freshly prepared TSB culture medium, and one platinum loopful of the dilution was inoculated in each of the plates containing the test compound.

[2] = system: Citrobacter freundii (F-34); assay: as above; format: cell-based; details: HIA medium plate, 37° C., 18 hours, read-out: Minimum growth inhibitory concentration (MIC)
Protocol: as §1, §2, §3, §4, §5, §6, §7

[3] = system: Enterobacter aerogenes (IFO 3320); assay: as above; format: cell-based; details: Klebsiella aerogenes, IFO3320; HIA medium plate, 37° C., 18 hours; read-out: Minimum growth inhibitory concentration (MIC)
Protocol: as §1, §2, §3, §4, §5, §6, §7

[4] = system: Enterobacter cloacae (D-49); assay: as above; format: cell-based; details: HIA medium plate, 37° C., 18 hours, read-out: Minimum growth inhibitory concentration (MIC)
Protocol: as §1, §2, §3, §4, §5, §6, §7

[5] = system: Escherichia coli (14H114); assay: as above; format: cell-based; details: HIA medium plate, 37° C., 18 hours, read-out: Minimum growth inhibitory concentration (MIC)
Protocol: as §1, §2, §3, §4, §5, §6, §7

[6] = system: Escherichia coli (26RO3); assay: as above; format: cell-based; details: HIA medium plate, 37° C., 18 hours, read-out: Minimum growth inhibitory concentration (MIC)
Protocol: as §1, §2, §3, §4, §5, §6, §7

[7] = system: Escherichia coli (K-12); assay: as above; format: cell-based; details: HIA medium plate, 37° C., 18 hours, read-out: Minimum growth inhibitory concentration (MIC)
Protocol: as §1, §2, §3, §4, §5, §6, §7

[8] = system: Escherichia coli (NIHJ); assay: as above; format: cell-based; details: HIA medium plate, 37° C., 18 hours, read-out: Minimum growth inhibitory concentration (MIC)
Protocol: as §1, §2, §3, §4, §5, §6, §7

[9] = system: Klebsiella pneumonia (F-5089); assay: as above; format: cell-based; details: Klebsiella pneumoniae; HIA medium plate, 37° C., 18 hours; read-out: Minimum growth inhibitory concentration (MIC)
Protocol: as §1, §2, §3, §4, §5, §6, §7

[10] = system: Klebsiella pneumoniae (ATCC 10031); assay: as above; format: cell-based; details: ATCC10031, 18 h, read-out: Minimum growth inhibitory concentration (MIC)
Protocol: as §1, §2, §3, §4, §5, §6, §7

[11] = system: Klebsiella pneumoniae (B-172); assay: as above; format: cell-based; details: HIA medium plate, 37° C., 18 hours, read-out: Minimum growth inhibitory concentration (MIC)
Protocol: as §1, §2, §3, §4, §5, §6, §7

[12] = system: Klebsiella pneumoniae (Horino); assay: as above; format: cell-based; details: HIA medium plate, 37° C., 18 hours, read-out: Minimum growth inhibitory concentration (MIC)
Protocol: as §1, §2, §3, §4, §5, §6, §7

[13] = system: Proteus morganii (C-39); assay: as above; format: cell-based; details: Morganella morganii; HIA medium plate, 37° C., 18 hours; read-out: Minimum growth inhibitory concentration (MIC)
Protocol: as §1, §2, §3, §4, §5, §6, §7

[14] = system: Proteus rettgeri (T-2); assay: as above; format: cell-based; details: Providencia rettgeri; HIA medium plate, 37° C., 18 hours; read-out: Minimum growth inhibitory concentration (MIC)
Protocol: as §1, §2, §3, §4, §5, §6, §7

[15] = system: Proteus vulgaris (OX-19); assay: as above; format: cell-based; details: 18 h, read-out: Minimum growth inhibitory concentration (MIC)
Protocol: as §1, §2, §3, §4, §5, §6, §7

[16] = system: Pseudomonas aeruginosa (395); assay: as above; format: cell-based; details: HIA medium plate, 37° C., 18 hours, read-out: Minimum growth inhibitory concentration (MIC)
Protocol: as §1, §2, §3, §4, §5, §6, §7

[17] = system: Pseudomonas aeruginosa (718); assay: as above; format: cell-based; details: HIA medium plate, 37° C., 18 hours, read-out: Minimum growth inhibitory concentration (MIC)
Protocol: as §1, §2, §3, §4, §5, §6, §7

[18] = system: Pseudomonas aeruginosa (ATCC 10145); assay: as above; format: cell-based; details: ATCC10145, HIA medium plate, 37° C., 18 hours, read-out: Minimum growth inhibitory concentration (MIC)
Protocol: as §1, §2, §3, §4, §5, §6, §7

[19] = system: Pseudomonas aeruginosa (F1629); assay: as above; format: cell-based; details: HIA medium plate, 37° C., 18 hours, read-out: Minimum growth inhibitory concentration (MIC)
Protocol: as §1, §2, §3, §4, §5, §6, §7

[20] = system: Pseudomonas aeruginosa (IFO-3901); assay: as above; format: cell-based; details: IFO3901, HIA medium plate, 37° C., 18 hours, read-out: Minimum growth inhibitory concentration (MIC)
Protocol: as §1, §2, §3, §4, §5, §6, §7

[21] = system: Pseudomonas aeruginosa (NCTC 7244); assay: as above; format: cell-based; details: NCTC7244, HIA medium plate, 37° C., 18 hours, read-out: Minimum growth inhibitory concentration (MIC)
Protocol: as §1, §2, §3, §4, §5, §6, §7

[22] = system: Pseudomonas aeruginosa (S-1); assay: as above; format: cell-based; details: HIA medium plate, 37° C., 18 hours, read-out: Minimum growth inhibitory concentration (MIC)
Protocol: as §1, §2, §3, §4, §5, §6, §7

[23] = system: Pseudomonas maltophilia (F-6257); assay: as above; format: cell-based; details: Stenotrophomonas maltophilia; HIA medium plate, 37° C., 18 hours; read-out: Minimum growth inhibitory concentration (MIC)
Protocol: as §1, §2, §3, §4, §5, §6, §7

[24] = system: Salmonella enteritidis (KB-21); assay: as above; format: cell-based; details: Salmonella enterica, 18 h, read-out: Minimum growth inhibitory concentration (MIC)
Protocol: as §1, §2, §3, §4, §5, §6, §7

[25] = system: Serratia marcescens (S-33); assay: as above; format: cell-based; details: HIA medium plate, 37° C., 18 hours, read-out: Minimum growth inhibitory concentration (MIC)
Protocol: as §1, §2, §3, §4, §5, §6, §7

[26] = system: Shigella flexneri (K-A); assay: as above; format: cell-based; details: HIA medium plate, 37° C., 18 hours, read-out: Minimum growth inhibitory concentration (MIC)
Protocol: as §1, §2, §3, §4, §5, §6, §7

[27] = system: Staphylococcus aureus (FDA 209P); assay: as above; format: cell-based; details: FDA209P, HIA medium plate, 37° C., 18 hours, read-out: Minimum growth inhibitory concentration (MIC)
Protocol: as §1, §2, §3, §4, §5, §6, §7

[28] = system: Staphylococcus aureus (Y-8); assay: as above; format: cell-based; details: HIA medium plate, 37° C., 18 hours, read-out: Minimum growth inhibitory concentration (MIC)
Protocol: as §1, §2, §3, §4, §5, §6, §7

[29] = system: Streptococcus faecalis (Hoshi); assay: as above; format: cell-based; details: Enterococcus faecalis; HIA medium plate, 37° C., 18 hours; read-out: Minimum growth inhibitory concentration (MIC)
Protocol: as §1, §2, §3, §4, §5, §6, §7

[30] = system: Pseudomonas aeruginosa (NCTC 7244); assay: MIC in HIB medium by turbidity (Referential Example 2, Table 2); format: cell-based; details: NCTC7244, 18 h, 37° C.
Protocol: (§8) The compounds obtained in Synthesis Examples 1 to 4 were tested in the following manner.
(§9) A suspension of Pseudomonas aeruginosa (NCTC 7244) cultivated at 37° C. for 18 hours in a heart infusion broth medium (HIB medium) in a final amount of 10^5, 10^6 and 10^7 cells/ml in an HIB medium containing each of the test compounds which was obtained in the same way as in Referential Example 1 except that the maximum concentration of the test compound was 200 μg/ml. The bacterial strain was cultivated at 37° C. for 18 hours, and the turbidity of the culture broth was evaluated with the naked eye. The minimum concentration of the test compound at which no turbidity was noted was defined as MIC.

[31] = system: Pseudomonas aeruginosa (NCTC 7244); assay: Minimum bactericidal concentration (Referential Example 2, Table 2); format: cell-based; details: NCTC7244, 18 h, subculture on HIA medium
Protocol: as §8, §9
The growth of the bacterial strain was evaluated.

[32] = system: Pseudomonas aeruginosa; details: background art, in words; cited from earlier work
[33] = system: Gram-positive or Gram-negative bacteria; details: background art, in words; cited from earlier work

Cc1nnc(SCC2=C(C(=O)O)N3C(=O)[C@@H](NC(=O)Cn4cnnn4)[C@H]3SC2)s1 [CEZ, sodium 7-[1-(1H)-tetrazoylacetamido]-3-[2-(5-methyl-1,3,4thiadiazoyl)-thiomethyl]-Δ^3-cephem-4-carboxylate]
MIC [1]: 100 µg/mL
MIC [2]: 50 µg/mL
MIC [3]: 3.13 µg/mL
MIC [4]: > 100 µg/mL
MIC [5]: 6.25 µg/mL
MIC [6]: 50 µg/mL
MIC [7]: 3.13 µg/mL
MIC [8]: 3.13 µg/mL
MIC [9]: 3.13 µg/mL
MIC [10]: 1.56 µg/mL
MIC [11]: 3.13 µg/mL
MIC [12]: 3.13 µg/mL
MIC [13]: > 100 µg/mL
MIC [14]: 12.5 µg/mL
MIC [15]: 1.56 µg/mL
MIC [16]: > 100 µg/mL
MIC [17]: > 100 µg/mL
MIC [18]: > 100 µg/mL
MIC [19]: > 100 µg/mL
MIC [20]: > 100 µg/mL
MIC [21]: > 100 µg/mL
MIC [22]: > 100 µg/mL
MIC [23]: > 100 µg/mL
MIC [24]: 1.56 µg/mL
MIC [25]: > 100 µg/mL
MIC [26]: 1.56 µg/mL
MIC [27]: 0.2 µg/mL
MIC [28]: 0.78 µg/mL
MIC [29]: 25 µg/mL
MIC ([30]; 10^5 cells/ml inoculated): > 200 µg/mL
MIC ([30]; 10^6 cells/ml inoculated): > 200 µg/mL
MIC ([30]; 10^7 cells/ml inoculated): > 200 µg/mL
MBC ([31]; 10^5 cells/ml inoculated): > 200 µg/mL
MBC ([31]; 10^6 cells/ml inoculated): > 200 µg/mL
MBC ([31]; 10^7 cells/ml inoculated): > 200 µg/mL
effectiveness for infections caused by Pseudomonas aeruginosa [32]: ineffective for infections caused by Pseudomonas aeruginosa
effectiveness for infections caused by Gram-positive or Gram-negative bacteria [33]: effective as therapeutic agents for infections caused by Gram-positive or Gram-negative bacteria
